From patent publication US8378059B2, “Supramolecular handcuffs in polymeric architecture” (Cambridge Enterprise Ltd., priority 2007, dated 2013)

Experiments:
[1] = solubility of hydrophobic guest in water, observed by 1H NMR; format: physicochemical
[2] = aqueous environment; cited from earlier work
[3] = Hwang et al. J. Am. Chem. Soc. 2007; cited from earlier work

CCCCCCCCCCCCCCCCCC[n+]1ccc(-c2cc[n+](C)cc2)cc1 [Viologen 3, Octadecyl methyl viologen]
change in solubility in water ([1]; addition of CB[8] to a solution of Np-PEG5k and 3): increase in solubility
water solubility ([1]; guest alone): only sparingly water-soluble

Cucurbit[8]uril
association constants (Ka), simultaneous binding of two organic guest molecules [2]: ≈ 10^11 M^−2

cucurbit[7]uril [CB[7]]
Ka, 1:1 complex with ferrocene derivatives [3]: ≈ 10^12 M^−1
